Assay: recombinant barcode read abundance after kanamycin selection (control-corrected) (log10(CPM+1)); higher = more efficient recombination; sequences stand for … in AGTGCAGAGAAAATCGGCCAGTTTTCTCTGCCTGCAGTCCGCATGCCGT…AGATTTATGCAGCGGACTGCCTTTCTCCCAAAGTGATAAACCGGACAGTATCATGGACCGGTTTTCCCGGTAATCCGTATTTGCAAGGTTGGTTTCACT; site = the 11-nt target
Description: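 Pooled E. coli target-specificity screen for the IS621 bridge recombinase. Each library plasmid pairs an 11-nt target (CT core) with a bridge RNA whose target-binding loop (9-nt LTG + 4-nt RTG) is reprogrammed; the rest of the 177-nt WT IS621 bridge RNA scaffold is fixed. The plasmid is co-electroporated with a WT donor plasmid; recombinase is induced with 0.1 mM IPTG and recombinants are selected on kanamycin. Recombinant barcodes are sequenced, converted to CPM, averaged over two biological replicates and corrected by the unselected control CPM. Molecule = full bridge RNA written as DNA: LTG = specificity nt 1-9, RTG = reverse complement of specificity nt 8-11, in the WT scaffold.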
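Further: IS621 recombinase and bridge RNA in Escherichia coli cells.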

Compared with “AACATGCCTTGGGTTCTAACCTGTTGCTT (site AACATGCCTAA)”, “AACCAGCCTTGGGTTCTAACCTGTTGCCT (site AACCAGCCTAG)” is higher in “recombinant barcode read abundance (log10)” value: 0.478 for the first, 1.33 for the second.

Going from “AACCAGCCTTGGGTTCTAACCTGTTGCCT (site AACCATCCTAG)” to “AACCAGTCTTGGGTTCTAACCTGTTGCGA (site AACCAGTCTTC)”, the “recombinant barcode read abundance (log10)” value rises from 0 to 1.38.

“AACCAGTCTTGGGTTCTAACCTGTTGCGA (site AACTAGTCTTA)” and “AACGCTCCTTGGGTTCTAACCTGTTGCCT (site AACGCTCCTAG)” are within 0.2 log units of each other in “recombinant barcode read abundance (log10)” value: 0.0824 for the first, 0.102 for the second.

Going from “AACGCTCCTTGGGTTCTAACCTGTTGCCT (site ACCGCTCCTAG)” to “AACGCTCCTTGGGTTCTAACCTGTTGCCT (site AGCGCTCCTAG)”, the “recombinant barcode read abundance (log10)” value rises from 0 to 0.833.

Going from “AACGCTCCTTGGGTTCTAACCTGTTGCCT (site ATCGCTCCTAG)” to “AACGCTCCTTGGGTTCTAACCTGTTGCGG (site AACGCTCCTCC)”, the “recombinant barcode read abundance (log10)” value rises from 0.239 to 0.503.

Compared with “AACGCTCCTTGGGTTCTAACCTGTTGCGG (site CACGGTCCTCC)”, “AACTAAGCTTGGGTTCTAACCTGTTGCCT (site AACTAAGCTAG)” is higher in “recombinant barcode read abundance (log10)” value: 0.0943 for the first, 0.336 for the second.

Compared with “AACTAAGCTTGGGTTCTAACCTGTTGCCT (site GGAAGCCCTTA)”, “AACTCAACTTGGGTTCTAACCTGTTGCCT (site AACTAAACTAG)” is lower in “recombinant barcode read abundance (log10)” value: 0.325 for the first, 0.108 for the second.

“AACTCAACTTGGGTTCTAACCTGTTGCCT (site AACTCAACTAG)” and “AACTCAACTTGGGTTCTAACCTGTTGCCT (site AACTGAACTAG)” are within 0.2 log units of each other in “recombinant barcode read abundance (log10)” value: 0.288 for the first, 0.18 for the second.

First: AACTCAACTTGGGTTCTAACCTGTTGCCT (site AACTTAACTAG)
Second: AAGAAAGCTTGGGTTCTAACCTGTTGCCT (site AAGAAAGCTAG)
The “recombinant barcode read abundance (log10)” value of the first is lower: 0.107 for the first, 1.82 for the second.

“AAGAAAGCTTGGGTTCTAACCTGTTGCCT (site AAGACAGCTAG)” and “AAGAAAGCTTGGGTTCTAACCTGTTGCCT (site AAGAGAGCTAG)” are within 0.2 log units of each other in “recombinant barcode read abundance (log10)” value: 0.0854 for the first, 0.113 for the second.

First: AAGAAAGCTTGGGTTCTAACCTGTTGCCT (site AAGATAGCTAG)
Second: AAGACCTCTTGGGTTCTAACCTGTTGCCT (site AAGACCTCTAG)
The “recombinant barcode read abundance (log10)” value of the first is lower: 0.464 for the first, 1.67 for the second.

Compared with “AAGACCTCTTGGGTTCTAACCTGTTGCCT (site TAGACCTCTAG)”, “AAGATACCTTGGGTTCTAACCTGTTGCCT (site AAGATACCTAG)” is higher in “recombinant barcode read abundance (log10)” value: 1.29 for the first, 2.23 for the second.

“AAGATACCTTGGGTTCTAACCTGTTGCCT (site ATGATACCTAG)” and “AAGCACTCTTGGGTTCTAACCTGTTGCCT (site AAGCAATCTAG)” are within 0.2 log units of each other in “recombinant barcode read abundance (log10)” value: 0.0427 for the first, 0.195 for the second.

First: AAGCACTCTTGGGTTCTAACCTGTTGCCT (site AAGCACTCTAG)
Second: AAGCACTCTTGGGTTCTAACCTGTTGCCT (site AAGCAGTCTAG)
The “recombinant barcode read abundance (log10)” value of the first is higher: 2.58 for the first, 0.107 for the second.

First: AAGCACTCTTGGGTTCTAACCTGTTGCCT (site AAGCATTCTAG)
Second: AAGCAGTCTTGGGTTCTAACCTGTTGCCT (site AAGCAATCTAG)
The “recombinant barcode read abundance (log10)” value of the first is lower: 0 for the first, 0.44 for the second.

Going from “AAGCAGTCTTGGGTTCTAACCTGTTGCCT (site AAGCACTCTAG)” to “AAGCAGTCTTGGGTTCTAACCTGTTGCCT (site AAGCAGTCTAG)”, the “recombinant barcode read abundance (log10)” value rises from 0.206 to 2.5.

Compared with “AAGCAGTCTTGGGTTCTAACCTGTTGCCT (site AAGCATTCTAG)”, “AAGCATCCTTGGGTTCTAACCTGTTGCCT (site AAGCATCCTAG)” is higher in “recombinant barcode read abundance (log10)” value: 0.162 for the first, 1.07 for the second.

“AAGCATCCTTGGGTTCTAACCTGTTGCCT (site ACGCATCCTAG)” and “AAGCATCCTTGGGTTCTAACCTGTTGCCT (site AGGCATCCTAG)” are within 0.2 log units of each other in “recombinant barcode read abundance (log10)” value: 0.192 for the first, 0.358 for the second.

Going from “AAGCATCCTTGGGTTCTAACCTGTTGCCT (site ATGCATCCTAG)” to “AAGCATTCTTGGGTTCTAACCTGTTGCCT (site AAGCAATCTAG)”, the “recombinant barcode read abundance (log10)” value rises from 0.00873 to 0.379.

“AAGCATTCTTGGGTTCTAACCTGTTGCCT (site AAGCACTCTAG)” and “AAGCATTCTTGGGTTCTAACCTGTTGCCT (site AAGCAGTCTAG)” are within 0.2 log units of each other in “recombinant barcode read abundance (log10)” value: 0.111 for the first, 0.254 for the second.

For “AAGCATTCTTGGGTTCTAACCTGTTGCCT (site AAGCATTCTAG)”, the “recombinant barcode read abundance (log10)” value was 1.81.

Reference: the supplement of paper PMC11208160
